Measured values taken from ChEMBL document CHEMBL1154855 (Eur J Med Chem, 2010).

What follows are compounds tested on Vaccinia virus (assay: Antiviral activity against Vaccinia virus infected in HEL cells assessed as protection from virus-induced cytopathogenicity after 2 to 3 days by MTT assay). Details: Orthopoxvirus vaccinia.
Format: functional, organism-based

| SMILES | EC50 |
| --- | --- |
| CCCCCCCCCC(=O)Oc1ccc(/C=C/C(=O)CC(=O)/C=C/c2ccc(OC(=O)CCCCCCCCC)c(OC)c2)cc1OC | > 147 nM |
| COc1cc(/C=C/C(=O)CC(=O)/C=C/c2ccc(OC(=O)CCC(NC(=O)c3ccc(NCc4cnc5nc(N)[nH]c(=O)c5n4)cc3)C(=O)O)c(OC)c2)ccc1OC(=O)CCC(NC(=O)c1ccc(NCc2cnc3nc(N)[nH]c(=O)c3n2)cc1)C(=O)O (stereo not drawn) | > 82 nM |
| COc1cc(/C=C/C(=O)CC(=O)/C=C/c2ccc(OC(=O)[C@H](Cc3ccccc3)NC(=O)[C@@H](N)Cc3c[nH]c4ccccc34)c(OC)c2)ccc1OC(=O)[C@H](Cc1ccccc1)NC(=O)[C@@H](N)Cc1c[nH]c2ccccc12 | > 38 nM |
| COc1cc(/C=C/C(=O)C(CCOC(=O)CCC(NC(=O)c2ccc(NCc3cnc4nc(N)[nH]c(=O)c4n3)cc2)C(=O)O)C(=O)/C=C/c2ccc(O)c(OC)c2)ccc1O (stereo not drawn) | > 11 nM |
| COc1cc(/C=C/C(=O)CC(=O)/C=C/c2ccc(OCCOC(=O)CCC(NC(=O)c3ccc(NCc4cnc5nc(N)[nH]c(=O)c5n4)cc3)C(=O)O)c(OC)c2)ccc1O (stereo not drawn) | > 119 nM |
| Nc1nc2c(ncn2COC(CO)CO)c(=O)[nH]1 [GANCICLOVIR] | > 100000 nM |
| NC(=O)c1ncn([C@@H]2O[C@H](CO)[C@@H](O)[C@H]2O)n1 [RIBAVIRIN] | 85000 nM |
| O=c1[nH]c(=O)n([C@H]2C[C@H](O)[C@@H](CO)O2)cc1/C=C/Br [BRIVUDINE] | 2000 nM |
